# Laboratory results reported in patent publication US8394742B2, “Methods, compounds and compositions with genotype selective anticancer activity” (The Translation Genomics Research Institute, priority 2005, dated 2013).
# Tests used:
# DPC4 [1] = assay: DPC4 suppression by siRNA expression constructs, transient transfection; assay type: cell-based, human; conditions: MiaPaCa-2 (wild-type DPC4), 24 hours after transfection
# Source text: The pMSCVproH vector was first used to create 6 DPC4 siRNA expression constructs, each of which targets a different region of the DPC4 transcript. Each of the oligonucleotide sequences was designed based on the criteria described by Tuschl and co-workers (65) and blasted against the GenBank database to confirm their specificity for DPC4.
# Applicants first tested the ability of these constructs in suppressing DPC4 expression by performing transient transfections. Each construct was transiently transfected into the pancreatic cancer cell line MiaPaCa-2 (wild-type DPC4) using the Lipofectin Reagent (Invitrogen). DPC4 expression was examined 24 hours after transfection.
# DPC4 [2] = assay: DPC4 suppression in HPDE6 clones after retrovirus infection (Western blot); assay type: cell-based, human
# Source text: Because of its high suppression ability in transient transfections, the construct pMSCVpuroH_DPC4_oligo4 was chosen to generate a cell line with stable DPC4 suppression from HPDE6. To verify the specificity of Oligo4, Applicants created a construct with a mutated Oligo4, Oligo4mut10. The only difference between the two oligos is that the nucleotide residue at position 10 was changed from cytosine in Oligo4 to adenine in Oligo4mut10 (FIG. 11A). After retrovirus infection, HPDE6 cells were selected with puromycin at 3 μg/ml. Individual clones were isolated using serial dilution of the cells in 96-well plates. Ten individual clones for each construct were picked and tested for DPC4 expression at protein level by Western blot.
# Eight passages after the infection, the expression of DPC4 in this clone was still 90% inhibited compared to the HPDE6 cells transfected with the empty vector (HPDE6-vector). This new cell line, which was named HPDE6-siDPC4, along with HPDE6-vector forms a set of isogenic cell lines for the DPC4 gene.
Substance,DPC4 suppression (DPC4 [1]),"expression of DPC4 inhibited (DPC4 [2]; HPDE6 clone (HPDE6-siDPC4), eight passages after infection, vs HPDE6-vector)","DPC4 suppression (DPC4 [2]; HPDE6 individual clones, six out of 10, protein level by Western blot)"
5′AGCAAGGTTGCACATAGGC 3′ [Olig6],about 80%,,
5′GTAGGACTGCACCATACAC 3′ [Oligo4],about 90%,90%,about 90%
